Assay results: patent publication US12351581B2, “Compounds for FGFR inhibition” (Cogent Biosciences, Inc., priority 2023, dated 2025)
Like-named read-outs stand apart in the source and are kept apart here.

Tests used:
FGFR2 N549H = target: T1, FGFR2 N549H (Homo sapiens, UniProt P21802, N549H); assay: FGFR mutant enzyme assay (HTRF KinEASE-TK); type: biochemical; conditions: ATP 0.9 uM
T1 construct: biochemical assays using purified intracellular domains of the respective isoforms; purchased Carna Bioscience 08-532
Outline: (§1)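 Purified intracellular kinase domains, enzyme pre-incubated 30 min with compound (11-point 1:3 dilutions, typically 10,000-0.17 nM), then ATP plus 0.5 uM TK-peptide, 60 min at room temperature in HEPES pH7.5 with Mg2+/Mn2+. HTRF 665/615 ratio converted to percent of control; IC50 from four-parameter logistic fit.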

FGFR2 V564F = target: T2, FGFR2 V564F (Homo sapiens, UniProt P21802, V564F); assay: FGFR mutant enzyme assay (HTRF KinEASE-TK); type: biochemical; conditions: ATP 1.5 uM
T2 construct: biochemical assays using purified intracellular domains of the respective isoforms; purchased SignalChem Biotech F05-12FG
Outline: as §1

FGFR2 V564I = target: T3, FGFR2 V564I (Homo sapiens, UniProt P21802, V564I); assay: FGFR mutant enzyme assay (HTRF KinEASE-TK); type: biochemical; conditions: ATP 0.4 uM
T3 construct: biochemical assays using purified intracellular domains of the respective isoforms; purchased Carna Bioscience 08-546
Outline: as §1

FGFR2-WT = FGFR2-WT (Homo sapiens, UniProt P21802); assay: Phosphorylated FGFR2-WT (pFGFR2-WT) cell assay, KATOIII cells; type: cell-based; conditions: 1 hour incubation, phospho FGFR2 HTRF
Outline: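 KATOIII cells treated 1 h at 37 °C with threefold compound dilutions (10 μM to 0.5 nM). Lysate phospho-FGFR2 (Tyr653/654) read by HTRF.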

FGFR2 = target: T4, FGFR2 (Homo sapiens, UniProt P21802); assay: FGFR wild type enzyme assay (HTRF KinEASE-TK); type: biochemical; conditions: ATP 2 uM
T4 construct: biochemical assays using purified intracellular domains of the respective isoforms; purchased Carna Bioscience 08-134
Outline: as §1

[1] = compound table after the examples, read-out: Enz FGFR2

T4 sequence (P21802 399-821 limits assumed): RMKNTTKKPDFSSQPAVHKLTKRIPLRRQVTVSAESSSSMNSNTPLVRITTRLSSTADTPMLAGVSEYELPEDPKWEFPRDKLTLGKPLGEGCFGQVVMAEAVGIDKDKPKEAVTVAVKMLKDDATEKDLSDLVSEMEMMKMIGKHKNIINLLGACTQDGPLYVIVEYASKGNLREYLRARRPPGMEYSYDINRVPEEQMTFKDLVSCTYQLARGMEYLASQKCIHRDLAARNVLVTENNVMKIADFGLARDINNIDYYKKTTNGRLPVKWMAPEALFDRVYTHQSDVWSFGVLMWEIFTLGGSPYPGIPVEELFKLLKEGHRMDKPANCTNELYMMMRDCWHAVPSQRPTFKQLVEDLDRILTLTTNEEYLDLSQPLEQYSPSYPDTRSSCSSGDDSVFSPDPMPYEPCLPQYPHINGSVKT
FGFR2-WT, sequence (P21802 430-767 limits assumed): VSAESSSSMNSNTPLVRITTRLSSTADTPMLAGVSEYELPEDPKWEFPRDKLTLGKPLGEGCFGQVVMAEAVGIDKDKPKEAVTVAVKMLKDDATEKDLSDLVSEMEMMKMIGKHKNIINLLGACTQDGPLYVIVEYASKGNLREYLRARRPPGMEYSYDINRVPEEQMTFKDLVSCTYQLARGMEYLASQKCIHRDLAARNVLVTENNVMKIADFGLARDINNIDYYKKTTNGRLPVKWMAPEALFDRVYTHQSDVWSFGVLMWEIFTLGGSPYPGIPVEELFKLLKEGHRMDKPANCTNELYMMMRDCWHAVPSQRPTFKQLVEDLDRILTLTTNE
T2 sequence (P21802 399-821 V564F limits assumed): as the sequence (P21802 399-821 limits assumed) above, with V166F counted along it
T3 sequence (P21802 399-821 V564I limits assumed): as the sequence (P21802 399-821 limits assumed) above, with V166I counted along it
T1 sequence (P21802 399-821 N549H limits assumed): as the sequence (P21802 399-821 limits assumed) above, with N151H counted along it

Row | SMILES | IC50 (FGFR2 N549H) | IC50 (FGFR2 V564F) | IC50 (FGFR2 V564I) | IC50 (FGFR2-WT) | IC50 (FGFR2; Table 3, read-out: FGFR2 Enz) | IC50 (FGFR2; [1])
1 | Cc1c(-c2cc(O[C@@H](CO)c3ccc(F)cn3)c3c(C#N)cnn3c2)cnn1[C@H]1CC[C@H](O)CC1 [Compound 66, 4-((R)-1-(5-fluoropyridin-2-yl)-2-hydroxyethoxy)-6-(1-((1r,4R)-4-hydroxycyclohexyl)-5-methyl-1H-pyrazol-4-yl)pyrazolo[1,5-a]pyridine-3-carbonitrile] | 106 nM | 139 nM | 369 nM | 793 nM | 105 nM | 110 nM
2 | Cc1c(-c2cc(O[C@@H](c3ccc(F)cn3)C(F)(F)F)c3c(C#N)cnn3c2)cnn1[C@H]1CC[C@H](O)CC1 [Compound 69, 6-(1-((1r,4S)-4-hydroxycyclohexyl)-5-methyl-1H-pyrazol-4-yl)-4-((S)-2,2,2-trifluoro-1-(5-fluoropyridin-2-yl)ethoxy)pyrazolo[1,5-a]pyridine-3-carbonitrile] | 1 nM | 1.6 nM | 1.6 nM | 2 nM | 0.4 nM | 0.4 nM
3 | Cc1c(-c2cc(O[C@H](c3ccc(F)cn3)C(F)(F)F)c3c(C#N)cnn3c2)cnn1[C@H]1CC[C@H](O)CC1 [Compound 70, 6-(1-((1r,4R)-4-hydroxycyclohexyl)-5-methyl-1H-pyrazol-4-yl)-4-((R)-2,2,2-trifluoro-1-(5-fluoropyridin-2-yl)ethoxy)pyrazolo[1,5-a]pyridine-3-carbonitrile] | 160 nM | 219 nM | 420 nM | 790 nM | 110 nM | 110 nM
4 | Cc1c(-c2cc(O[C@H](C)c3ccc(F)cn3)c3c(C#N)cnn3c2)cnn1[C@H]1CCC[C@@H](O)C1 [Compound 71, 4-((R)-1-(5-fluoropyridin-2-yl)ethoxy)-6-(1-((1S,3R)-3-hydroxycyclohexyl)-5-methyl-1H-pyrazol-4-yl)pyrazolo[1,5-a]pyridine-3-carbonitrile] | 1 nM | 2 nM | 3 nM | 4.5 nM | 1 nM | 1 nM

More lines, in order of falling IC50 (FGFR2 N549H), values ahead:

Row | IC50 (FGFR2 N549H) | IC50 (FGFR2 V564F) | IC50 (FGFR2 V564I) | IC50 (FGFR2-WT) | IC50 (FGFR2; Table 3, read-out: FGFR2 Enz) | IC50 (FGFR2; [1]) | SMILES
5 | 1 nM | 3 nM | 4 nM | 8 nM | 1 nM | 1 nM | Cc1c(-c2cc(O[C@H](C)c3ccc(F)cn3)c3c(C#N)cnn3c2)cnn1[C@@H]1CCC[C@@H](O)C1 [Compound 68, 4-((R)-1-(5-fluoropyridin-2-yl)ethoxy)-6-(1-((1R,3R)-3-hydroxycyclohexyl)-5-methyl-1H-pyrazol-4-yl)pyrazolo[1,5-a]pyridine-3-carbonitrile]
6 | 0.45 nM | 1 nM | 1.5 nM | 3 nM | 0.4 nM | 0.4 nM | Cc1c(-c2cc(O[C@H](C)c3ccc(F)cn3)c3c(C#N)cnn3c2)cnn1[C@@H]1CCC[C@H](O)C1 [Compound 72, 4-((R)-1-(5-fluoropyridin-2-yl)ethoxy)-6-(1-((1R,3S)-3-hydroxycyclohexyl)-5-methyl-1H-pyrazol-4-yl)pyrazolo[1,5-a]pyridine-3-carbonitrile]
7 | 0.4 nM | 1 nM | 1.4 nM | 4 nM | 0.4 nM | 0.4 nM | Cc1c(-c2cc(O[C@H](C)c3ccc(F)cn3)c3c(C#N)cnn3c2)cnn1[C@H]1CCC[C@H](O)C1 [Compound 67, 4-((R)-1-(5-fluoropyridin-2-yl)ethoxy)-6-(1-((1S,3S)-3-hydroxycyclohexyl)-5-methyl-1H-pyrazol-4-yl)pyrazolo[1,5-a]pyridine-3-carbonitrile]
